Results from US20240116996A1, “METHODS AND COMPOSITIONS FOR TREATING A CORONAVIRUS INFECTION” (Recovery Therapeutics, Inc., priority 2021, published 2024).
Like-named read-outs stand apart in the source and are kept apart here.

Experiments:
[1] = test system: human coronavirus strain 229E (HCoV-229E); assay type: cell-based; conditions: FGF-2 1 ng/mL to 0.003 ng/mL, XTT
[2] = test system: SARS-CoV-2 (strain USA-WA1/2020); assay type: in vivo, Golden Syrian hamsters; conditions: lungs on D6
HAP1 cells = conditions: increasing concentrations of FGF-2 up to 1 ng/mL, XTT

FGF-2: Recombinant human FGF-2 (SEQ ID NO. 1, 18 kDa low molecular weight isoform); Sigma-Aldrich F0291 in Example 1, PeproTech 100-18B in Example 2
EC50 (dose-dependent enhancement of cell survival) [1]: 0.08 ng/mL | reduction in viral load compared to vehicle-treated animals ([2]; 20 μg FGF-2 intravenous on D-1, D0, D1, D2): 51% | reduction in viral load compared to vehicle-treated animals ([2]; 50 μg FGF-2 intravenous on D-1, D0, D1, D2): 73% | toxicity (HAP1 cells): without toxicity
